We go through 6 compounds from patent US3968230A, “Compositions containing benzodiazepindiones and method of use” (American Cyanamid Company, priority 1975, dated 1976).

This assay has as its system Clonic Seizures Caused by Pentylenetetrazole. Put plainly: Protection against clonic seizures caused by pentylenetetrazole in rats. The format is in vivo. Conditions: oral; for ED50: Rattus norvegicus, 2% starch vehicle, groups of at least 5 rats, pentylenetetrazole 21 to 23 mg/kg i.v. at estimated time of peak effect, protection of 50% of animals (Litchfield and Wilcoxon), read-out: Median Effective Oral Dose ED50 (protection against clonic seizures caused by pentylenetetrazole); for effectiveness as anxiolytic agent relative to the respective dextrorotatory and racemic forms of the desmethyl prior art compound (Compounds 3 and 4): rats, from ED50 table. As to the method: The anti-anxiety properties of the active components of the present invention have been established in a test which indicates anxiolytic activity by a measure of protection from convulsions resulting from the administration of pentylenetetrazol. Graded dose levels of the dextro and racemic forms of the compound 1,2,3,11a-tetrahydro-10-mthyl-5H-pyrrolo[2,1-c] [1,4]benzodiazepin-5,11(10H)-dione are administered orally, in a 2% starch vehicle, to groups of at least 5 rats. At the estimated time of peak effect, the rats are treated intravenously with pentylenetetrazole at a dose of 21 to 23 mg./kg. of body weight. This dose is estimated to cause clonic seizures in 99% of unprotected rats. The effective dose of the test compound for protection of 50% of the animals is calculated by the method of J. T. Litchfield and F. Wilcoxon, Journal of Pharmacology and Experimental Therapeutics, 96, 99 (1949). The results are given in the table which follows in comparison with Librium (chlordiazepoxide), Valium (diazepam) and the dextro and racemic forms of 1,2,3,11 a-tetrahydro-5H-pyrrolo[2,1-c] [1,4]benzodiazepin-5,11(10H)-dione (U.S. Pat. No. 3,732,212) all of which were tested in exactly the same manner. It has been reported [R. T. Hill and D. R. Tedeschi, "Animal Testing and Screening Procedures in Evaluating Psychotropic Drugs" in An Introduction to Psychopharmacology, Eds. R. R. Rech and K. E. Moore, Raven Press, New York, pp. 237-288 (1971) that there is a high degree of correlation between antagonism of pentylenetetrazole seizures in rats and antianxiety effects in higher warm-blooded animals.

In the case of `CN1C(=O)C2CCCN2C(=O)c2ccccc21` (racemic) [Compound 2, Racemic-1,2,3,11a-tetrahydro-10-methyl-5H-pyrrolo[2,1-c][1,4]benzodiazepin-5,11(10H)-dione], the ED50 is 20 mg/kg; the “effectiveness as anxiolytic agent relative to the respective dextrorotatory and racemic forms of the desmethyl prior art compound (Compounds 3 and 4)” value is reported as “far more effective”.
`O=C1Nc2ccccc2C(=O)N2CCCC12` (racemic) [Compound 4, Racemic-1,2,3,11a-tetrahydro-5H-pyrrolo[2,1-c]-[1,4]benzodiazepin-5,11(10H)-dione]: the ED50 was 70 mg/kg.
As to `CN1C(=O)[C@@H]2CCCN2C(=O)c2ccccc21` [Compound 1, Dextro-1,2,3,11a-tetrahydro-10-methyl-5H-pyrrolo[2,1-c][1,4]benzodiazepin-5,11(10H)-dione], the ED50 was 10 mg/kg; the “effectiveness as anxiolytic agent relative to the respective dextrorotatory and racemic forms of the desmethyl prior art compound (Compounds 3 and 4)” value was “far more effective”.
For `O=C1Nc2ccccc2C(=O)N2CCC[C@@H]12` [Compound 3, Dextro-1,2,3,11a-tetrahydro-5H-pyrrolo[2,1-c]-[1,4]-benzodiazepin-5,11(10H)-dione], the ED50 was 35 mg/kg.
Still for that read-out and setting: the same measure for `CNC1=Nc2ccc(Cl)cc2C(c2ccccc2)=[N+]([O-])C1` [Compound 5, chlordiazepoxide]: 2.5 mg/kg; for `CN1C(=O)CN=C(c2ccccc2)c2cc(Cl)ccc21` [Compound 6, diazepam]: 1.8 mg/kg.
